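Grown in 96-well plates, cells were treated for 48 hours with each compound at five concentrations. Insufficient inhibition: endpoint recorded as highest concentration tested. At the TGI there is no net growth.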
What was measured:
Assay in all cases: DTP human tumour cell line panel, 48 h
OVCAR-4 ovarian = tested on: OVCAR-4 ovarian
NCI-H23 lung = tested on: NCI-H23 lung
NCI-H226 lung = tested on: NCI-H226 lung
MDA-MB-231 breast = tested on: MDA-MB-231 breast
UO-31 renal = tested on: UO-31 renal
MDA-MB-435 = tested on: MDA-MB-435
OVCAR-3 ovarian = tested on: OVCAR-3 ovarian
K-562 leukemia = tested on: K-562 leukemia
EKVX NSCLC = tested on: EKVX NSCLC
HS 578T breast = tested on: HS 578T breast

Row | Compound | TGI (OVCAR-4 ovarian) | TGI (NCI-H23 lung) | TGI (NCI-H226 lung) | TGI (MDA-MB-231 breast) | TGI (UO-31 renal) | TGI (MDA-MB-435) | TGI (OVCAR-3 ovarian) | TGI (K-562 leukemia) | TGI (EKVX NSCLC) | TGI (HS 578T breast)
1 | CCOC(=O)c1ccc(Nc2c3c(nc4ccccc24)CCCC3)cc1 | > 100 µM | > 100 µM | > 100 µM | > 100 µM | > 100 µM | > 100 µM | > 100 µM | > 100 µM | > 100 µM | > 100 µM
2 | CCN(CC)CC1CCCCN1CC(=O)N1c2ccccc2NC(=O)CC1C (stereo not given) | > 100 µM | > 100 µM | > 100 µM | > 100 µM | > 100 µM | > 100 µM | > 100 µM | > 100 µM | > 100 µM | > 100 µM
3 | Cc1nc(C)c(C(=O)NNC(N)=S)cc1C(=O)NNC(N)=S | > 100 µM | > 100 µM | > 100 µM | > 100 µM | > 100 µM | > 100 µM | > 100 µM | > 100 µM | > 100 µM | > 100 µM
4 | Cn1c(=O)c(C(=O)Nc2nc(C34CC5CC(CC(C5)C3)C4)cs2)c(O)c2ccccc21 | > 100 µM | > 100 µM | > 100 µM | > 100 µM | > 100 µM | > 100 µM | > 100 µM | > 100 µM | > 100 µM | > 100 µM
5 | COC(=O)c1c(O)ccc2c1c1c(n2Cc2ccccc2Cl)C(=O)c2ccccc2C1=O | 12.6 µM | 29.8 µM | 36.6 µM | 32.3 µM | 24.8 µM | 25.2 µM | 21.8 µM | 97.3 µM | 32.5 µM | 59 µM
6 | Nn1c(COc2cccc(OCc3n[nH]c(=S)n3N)c2)n[nH]c1=S | > 100 µM | > 100 µM | > 100 µM | > 100 µM | > 100 µM | > 100 µM | > 100 µM | > 100 µM | > 100 µM | > 100 µM
7 | CC(=O)OCCOCn1c2c(c(=S)[nH]c1=O)CCC2 | > 100 µM | > 100 µM | > 100 µM | > 100 µM | > 100 µM | > 100 µM | > 100 µM | > 100 µM | > 100 µM | > 100 µM
8 | O=C(c1ccccc1)N1CCN(C(=S)N(C(=O)c2ccccc2)c2ccccc2)C1=S | 10.9 µM | 11.6 µM | 32 µM | > 42.5 µM | 6.43 µM | 12.2 µM | 15.4 µM | > 100 µM | 19.5 µM | > 27.1 µM
